Results from patent publication US6391876B1 (Pharmacia and Upjohn Company, priority 1998, dated 2002).

Legend:
[1] = test system: patients with a DSM-III-R diagnosis of Obsessive Compulsive Disorder; assay: trial in patients with Obsessive Compulsive Disorder; assay type: in vivo, human; settings: 10 OCD patients, 3 to 4 weeks, 6 mg first week then 8 mg per day
[2] = in vivo; cited from earlier work
[3] = test system: patients with panic Disorder with or without Agoraphobia
[4] = test system: muscarinic cholinergic receptors; assay: interaction with muscarinic cholinergic receptors; assay type: binding
I-adrenerigic receptors = assay: interaction with I-adrenerigic receptors; assay type: binding
monoamine oxidase (MAO) = test system: monoamine oxidase (MAO)
Description: (§1) Leonard-BE, “Noradrenaline in basic models of depression.” European-Neuropsychopharmacol. April 1997; 7 Suppl 1: S11-6; discussion S71-3.

dopamine uptake = test system: dopamine uptake
Description: as §1

serotonin uptake = test system: serotonin uptake
Description: as §1

norepinephrine uptake = test system: norepinephrine uptake
Description: as §1

[5] = vs placebo, at some point in time

Compound: CCOc1ccccc1OC(c1ccccc1)C1CNCCO1 (stereo not drawn) [reboxetine]
- patients judged minimally improved at CGI last assessment [1]: 2
- patients judged much improved at CGI last assessment [1]: 4
- patients judged very much improved at CGI last assessment [1]: one
- patients unchanged at CGI last assessment [1]: 3
- effect in the 8-OH-DPAT hypothermia test [2]: ineffective
- mean number of major panic attacks ([3]; 37 patients on reboxetine vs 38 on placebo): significantly lower than for those on placebo
- anticipatory anxiety [3, 5]: better
- phobic symptoms [3, 5]: better
- social and family adjustment [3, 5]: better
- interaction with muscarinic cholinergic receptors [4]: without showing any appreciable interaction
- interaction with I-adrenerigic receptors (I-adrenerigic receptors): without showing any appreciable interaction
- monoamine oxidase (MAO) inhibitory activity (monoamine oxidase (MAO)): devoid of monoamine oxidase (MAO) inhibitory activity
- dopamine uptake inhibitory activity (dopamine uptake): no dopamine uptake inhibitory activity
- serotonin uptake inhibitory activity (serotonin uptake): only marginal
- norepinephrine uptake inhibitory activity (norepinephrine uptake): highly selective norepinephrine uptake inhibitor
